Target: T1, human TGR5 (Homo sapiens, UniProt Q8TDU6)
T1 construct: expressed in transfected cells; host or cells: HEK293
T1 sequence (Q8TDU6 1-330): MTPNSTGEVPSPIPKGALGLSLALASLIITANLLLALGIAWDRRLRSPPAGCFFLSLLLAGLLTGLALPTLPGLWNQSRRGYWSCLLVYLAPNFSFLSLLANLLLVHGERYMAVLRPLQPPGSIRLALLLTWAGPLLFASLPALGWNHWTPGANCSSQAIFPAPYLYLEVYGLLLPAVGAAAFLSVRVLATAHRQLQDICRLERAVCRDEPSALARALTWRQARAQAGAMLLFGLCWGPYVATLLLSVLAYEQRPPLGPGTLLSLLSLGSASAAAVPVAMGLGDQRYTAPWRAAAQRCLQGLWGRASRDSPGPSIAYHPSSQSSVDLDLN
Test: Cell-based TGR5 assay (cAMP generation, HTRF)
Conditions: HEK293 cells stably transfected with human TGR5; cAMP by HTRF; 30 minutes at 37° C.; read-out: pEC50 Human TGR5 (converted)
Procedure, shortened: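 First, compounds in 3-fold serial dilution were placed in HBSS with 10 mM HEPES pH 7.4 and 0.5 mM IBMX. Next, human TGR5-expressing HEK293 cells were added and incubated 30 min at 37° C. Finally, cAMP was detected by HTRF and pEC50 derived by logistic fitting.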

Structure (SMILES)	EC50 [nM]
Cc1ccc(Cl)c(CNC2(c3cnccc3-c3ccccc3OC3CC3)CC2)c1 [Compound I-33, N-[(2-chloro-5-methylphenyl)methyl]-1-[4-(2-cyclopropoxyphenyl)pyridin-3-yl]cyclopropan-1-amine]	< 100
CN(C[C@H](O)[C@@H](O)[C@H](O)[C@H](O)CO)C(=O)CN1CCN(C(=O)CCCCc2cc(Cl)c(COC3(c4cnccc4-c4ccccc4OC4CC4)CC3)cc2Cl)CC1 [Compound I-89, 2-(4-(5-(2,5-dichloro-4-((1-(4-(2-cyclopropoxyphenyl)pyridin-3-yl)cyclopropoxy)methyl)phenyl)pentanoyl)piperazin-1-yl)-N-methyl-N-((2S,3R,4R,5R)-2,3,4,5,6-pentahydroxyhexyl)acetamide]	< 100
CC(C)Oc1ccccc1-c1ccncc1C1(NCc2cc(Cl)ccc2Cl)CC1 [Compound I-2, N-[(2,5-dichlorophenyl)methyl]-1-{4-[2-(propan-2-yloxy)phenyl]pyridin-3-yl}cyclopropan-1-amine]	< 100
CC(CO)Oc1ccccc1-c1ccncc1C1(NCc2cc(Cl)ccc2Cl)CC1 (centres unmarked) [Compound I-20, 2-{2-[3-(1-{[(2,5-dichlorophenyl)methyl]amino}cyclopropyl)pyridin-4-yl]phenoxy}propan-1-ol]	126 to 1000
Cc1ccc(C(CO)CCCNC(=O)NC[C@H](O)[C@@H](O)[C@H](O)[C@H](O)CO)cc1CNC1(c2cnccc2-c2ccccc2OC2CC2)CC1 (stereo partly drawn) [Compound I-387, 1-(4-{3-[({1-[4-(2-cyclopropoxyphenyl)pyridin-3-yl]cyclopropyl}amino)methyl]-4-methylphenyl}-5-hydroxypentyl)-3-[(2S,3R,4R,5R)-2,3,4,5,6-pentahydroxyhexyl]urea]	126 to 1000
O=C(CCCCc1cc(Cl)c(COC2(c3cnccc3-c3ccccc3OC3CC3)CC2)cc1Cl)N(CC(O)CO)C[C@H](O)[C@@H](O)[C@H](O)[C@H](O)CO (stereo partly drawn) [Compound I-122, 5-(2,5-dichloro-4-((1-(4-(2-cyclopropoxyphenyl)pyridin-3-yl)cyclopropoxy)methyl)phenyl)-N-(2,3-dihydoxypropyl)-N-((2S,3R,4R,5R)-2,3,4,5,6-pentahydroxyhexyl) pentanamide]	< 100
Fc1ccc(OC2CC2)c(-c2ccncc2C2(NCc3cc(Cl)ccc3Cl)CC2)c1 [Compound I-3, 1-[4-(2-cyclopropoxy-5-fluorophenyl)pyridin-3-yl]-N-[(2,5-dichlorophenyl)methyl]cyclopropan-1-amine]	< 100
CC(C)C(=O)N(CCCCc1cc(Cl)c(COC2(c3cnccc3-c3ccccc3OC3CC3)CC2)cc1Cl)C[C@H](O)[C@@H](O)[C@H](O)[C@H](O)CO [Compound I-69, N-{4-[2,5-dichloro-4-({1-[4-(2-cyclopropoxyphenyl)pyridin-3-yl]cyclopropoxy}methyl)phenyl]butyl}-2-methyl-N-[(2S,3R,4R,5R)-2,3,4,5,6-pentahydroxyhexyl]propanamide]	126 to 1000
O=C(O)CCN(C[C@H](O)[C@@H](O)[C@H](O)[C@H](O)CO)C(=O)CCCCc1cc(Cl)c(COC2(c3cnccc3-c3ccccc3OC3CC3)CC2)cc1Cl [Compound I-183, 3-{5-[2,5-dichloro-4-({1-[4-(2-cyclopropoxyphenyl)pyridin-3-yl]cyclopropoxy}methyl)phenyl]-N-[(2S,3R,4R,5R)-2,3,4,5,6-pentahydroxyhexyl]pentanamido}propanoic acid]	< 100

The next lines start with the values.

EC50 [nM]	Structure (SMILES)
< 100	O=C(CO)N(CCCCc1cc(Cl)c(COC2(c3cnccc3-c3ccccc3OC3CC3)CC2)cc1Cl)C[C@H](O)[C@@H](O)[C@H](O)[C@H](O)CO [Compound I-71, N-{4-[2,5-dichloro-4-({1-[4-(2-cyclopropoxyphenyl)pyridin-3-yl]cyclopropoxy}methyl)phenyl]butyl}-2-hydroxy-N-[(2S,3R,4R,5R)-2,3,4,5,6-pentahydroxyhexyl]acetamide]
< 100	O=C(NCCCCc1cc(Cl)c(COC2(c3cnccc3-c3ccccc3OC3CC3)CC2)cc1Cl)[C@@H](O)[C@@H](O)[C@H](O)[C@@H](O)CO (stereo in doubt) [Compound I-185, (2S,3S,4R,5S)-N-{4-[2,5-dichloro-4-({1-[4-(2-cyclopropoxyphenyl)pyridin-3-yl]cyclopropoxy}methyl)phenyl]butyl}-2,3,4,5,6-pentahydroxyhexanamide]
< 100	Cc1cc(COC2(c3cnccc3-c3ccccc3OC3CC3)CC2)c(Cl)cc1CCCCNC(=O)N(C)C[C@H](O)[C@@H](O)[C@H](O)[C@H](O)CO [Compound I-167, 1-{4-[5-chloro-4-({1-[4-(2-cyclopropoxyphenyl)pyridin-3-yl]cyclopropoxy}methyl)-2-methylphenyl]butyl}-3-methyl-3-[(2S,3R,4R,5R)-2,3,4,5,6-pentahydroxyhexyl]urea]
1260 to 10000	CC(=O)NS(=O)(=O)c1ccc(Cl)c(COC2(c3cnccc3-c3ccccc3OC3CC3)CC2)c1 [Compound I-729, N-[[4-chloro-3-([1-[4-(2-cyclopropoxyphenyl)pyridin-3-yl]cyclopropoxy]methyl)benzene]sulfonyl]acetamide]
< 100	CC(C)N(C[C@H](O)[C@@H](O)[C@H](O)[C@H](O)CO)C(=O)CCCSc1ccc(Cl)c(COC2(c3cnccc3-c3ccccc3OC3CC3)CC2)c1 [Compound I-668, 4-{[4-chloro-3-({1-[4-(2-cyclopropoxyphenyl)pyridin-3-yl]cyclopropoxy}methyl)phenyl]sulfanyl}-N-[(2S,3R,4R,5R)-2,3,4,5,6-pentahydroxyhexyl]-N-(propan-2-yl)butanamide]
< 100	O=C(CCCCc1ccc(Cl)c(COC2(c3cnccc3-c3ccccc3OC3CC3)CC2)c1)NC[C@H](O)[C@@H](O)[C@H](O)[C@H](O)CO (stereo in doubt) [Compound I-231, 5-[4-chloro-3-({1-[4-(2-cyclopropoxyphenyl)pyridin-3-yl]cyclopropoxy}methyl)phenyl]-N-[(2S,3R,4R,5R)-2,3,4,5,6-pentahydroxyhexyl]pentanamide]
< 100	CNS(=O)(=O)c1ccc(Cl)c(COC2(c3cnccc3-c3ccccc3OC3CC3)CC2)c1 [Compound I-394, 4-chloro-3-({1-[4-(2-cyclopropoxyphenyl)pyridin-3-yl]cyclopropoxy}methyl)-N-methylbenzene-1-sulfonamide]
< 100	CS(=O)(=O)CCN(CCCCCSc1ccc(Cl)c(COC2(c3cnccc3-c3ccccc3OC3CC3)CC2)c1)C(=O)[C@@H](O)[C@@H](O)[C@H](O)[C@@H](O)CO [Compound I-603, (2S,3S,4R,5S)-N-(5-{[4-chloro-3-({1-[4-(2-cyclopropoxyphenyl)pyridin-3-yl]cyclopropoxy}methyl)phenyl]sulfanyl}pentyl)-2,3,4,5,6-pentahydroxy-N-(2-methanesulfonylethyl)hexanamide]
< 100	CC(CCCC(=O)N(CCO)C[C@H](O)[C@@H](O)[C@H](O)[C@H](O)CO)c1ccc(Cl)c(COC2(c3cnccc3-c3ccccc3OC3CC3)CC2)c1 (stereo partly drawn) [Compound I-374, 5-[4-chloro-3-({1-[4-(2-cyclopropoxyphenyl)pyridin-3-yl]cyclopropoxy}methyl)phenyl]-N-(2-hydroxyethyl)-N-[(2S,3R,4R,5R)-2,3,4,5,6-pentahydroxyhexyl]hexanamide]
126 to 1000	CCNC(=O)CCN(C[C@H](O)[C@@H](O)[C@H](O)[C@H](O)CO)C(=O)CCCSc1ccc(Cl)c(COC2(c3cnccc3-c3ccccc3OC3CC3)CC2)c1 [Compound I-672, 4-{[4-chloro-3-({1-[4-(2-cyclopropoxyphenyl)pyridin-3-yl]cyclopropoxy}methyl)phenyl]sulfanyl}-N-[2-(ethylcarbamoyl)ethyl]-N-[(2S,3R,4R,5R)-2,3,4,5,6-pentahydroxyhexyl]butanamide]
126 to 1000	CS(=O)(=O)CCN(C[C@H](O)[C@@H](O)[C@H](O)[C@H](O)CO)C(=O)CCCSc1ccc(Cl)c(COC2(c3cnccc3-c3ccccc3OC3CC3)CC2)c1 [Compound I-665, 4-{[4-chloro-3-({1-[4-(2-cyclopropoxyphenyl)pyridin-3-yl]cyclopropoxy}methyl)phenyl]sulfanyl}-N-(2-methanesulfonylethyl)-N-[(2S,3R,4R,5R)-2,3,4,5,6-pentahydroxyhexyl]butanamide]
< 100	CC(CCSc1ccc(Cl)c(COC2(c3cnccc3-c3ccccc3OC3CC3)CC2)c1)C(=O)N(C)C[C@H](O)[C@@H](O)[C@H](O)[C@H](O)CO (stereo partly drawn) [Compound I-689, 4-{[4-chloro-3-({1-[4-(2-cyclopropoxyphenyl)pyridin-3-yl]cyclopropoxy}methyl)phenyl]sulfanyl}-N,2-dimethyl-N-[(2S,3R,4R,5R)-2,3,4,5,6-pentahydroxyhexyl]butanamide]
126 to 1000	NC(=O)CN(C[C@H](O)[C@@H](O)[C@H](O)[C@H](O)CO)C(=O)CCCSc1ccc(Cl)c(COC2(c3cnccc3-c3ccccc3OC3CC3)CC2)c1 [Compound I-663, N-(carbamoylmethyl)-4-{[4-chloro-3-({1-[4-(2-cyclopropoxyphenyl)pyridin-3-yl]cyclopropoxy}methyl)phenyl]sulfanyl}-N-[(2S,3R,4R,5R)-2,3,4,5,6-pentahydroxyhexyl]butanamide]
< 100	O=C(NC[C@H](O)[C@@H](O)[C@H](O)[C@H](O)CO)C1CCC(NS(=O)(=O)c2ccc(Cl)c(COC3(c4cnccc4-c4ccccc4OC4CC4)CC3)c2)C1 (stereo partly drawn) [Compound I-439, 3-[4-chloro-3-({1-[4-(2-cyclopropoxyphenyl)pyridin-3-yl]cyclopropoxy}methyl)benzenesulfonamido]-N-[(2S,3R,4R,5R)-2,3,4,5,6-pentahydroxyhexyl]cyclopentane-1-carboxamide]

Reference: US12084472B2 (Ardelyx, Inc., priority 2015, dated 2024)
